Article PMC3229523, “Identification of Lactoferricin B Intracellular Targets Using an Escherichia coli Proteome Chip” (PLoS ONE, 2011)
Entries after “also recorded” stand apart in the source; their conditions may differ. Ends that are not written are not given here. * marks the point of attachment. Biotin = O=C1N[C@H]2[C@H](CS[C@H]2CCCCC(=O)*)N1

Key:
NrdF = test: Fluorescence polarization assay, NrdF; assay type: binding, E. coli
Text: (§1) FP assays, investigations of the binding between two molecules in a homogeneous aqueous environment, were used to validate the identified 153 proteins. […] If a fluorophore only binds to a small molecule, such as peptide, the rotation of the complex is fast and the light emits in a different plane of polarization. Therefore, the degree of polarization is low. However, once a fluorophore binds to a large molecule, the bound complex is stimulated with polarized light. The light emits in the same polarized plane, and the complex is maintained in the same plane of polarization, causing an increase in the degree of polarization [22]–[24]. The amount of molecules binding to a fluorophore influences the degree of polarization. In this study, LfcinB was labeled with DyLight™ 549 as a reference value. Once the protein bound to LfcinB, like a fluorophore binds to a large molecule, a high degree of polarization is expected.
(§2) Before the assays, LfcinB was labeled with DyLight™ 549 and tested proteins were quantified with a Pierce® bicinchoninic acid (BCA™) protein assay (Thermo). To label the LfcinB, DyLight™ 549-NHS ester and LfcinB (68∶1, mole/mole) were mixed in PBS at room temperature for 1 h, a D-Salt™ polyacrylamide desalting column (Thermo) was used to remove excess dye and the labeling efficiency of the eluted solution was calculated. […]

MetL = test: Fluorescence polarization assay, MetL; assay type: binding, E. coli
Text: as §1, §2

CyaA = test system: CyaA
Text: as §1, §2

YnhE = test: Fluorescence polarization assay, YnhE; assay type: binding, E. coli; conditions: 100 nM DyLight 549-labeled LfcinB; protein 0.025-0.4 µM; data not shown
Text: as §1, §2

YdaU = test: Fluorescence polarization assay, YdaU; assay type: binding, E. coli; conditions: 100 nM DyLight 549-labeled LfcinB; protein 0.025-0.4 µM; data not shown
Text: as §1, §2

YjbM = test: Fluorescence polarization assay, YjbM; assay type: binding, E. coli; conditions: 100 nM DyLight 549-labeled LfcinB; protein 0.025-0.4 µM; data not shown
Text: as §1, §2

MalP = test: Fluorescence polarization assay, MalP; assay type: binding, E. coli; conditions: 100 nM DyLight 549-labeled LfcinB; protein 0.025-0.4 µM; data not shown
Text: as §1, §2

NrdD = test: Fluorescence polarization assay, NrdD; assay type: binding, E. coli; conditions: 100 nM DyLight 549-labeled LfcinB; protein 0.025-0.4 µM; data not shown
Text: as §1, §2

[1] = test system: isogenic parent strain and the knockout strains; test: Knockout assay, isogenic parent and knockout strains together; assay type: cell-based, E. coli K-12; conditions: 32 µM LfcinB, LB medium, 37°C
Procedure: The E. coli K-12 BW25113 (isogenic parent) strain and the 16 knockout strains were obtained from the E. coli Genetic Resources at the Coli Genetic Stock Center (CGSC) at Yale University. The strains were inoculated into LB medium, and incubated at 37°C with shaking. After 16 h of incubation, the cultures were diluted to approximately 10^7 CFU/ml with LB medium. Thirty-two µM of LfcinB were then added to the cultures in a 96-well plate. PBS was used as a negative control. Cultures with LfcinB or PBS were then incubated at 37°C with shaking in a microplate reader and the growth was observed by measuring the OD595 value every 20 min for 7 h 20 min.

pyruvate in E. coli = test: Pyruvate assay: pyruvate level in E. coli (OD570); assay type: cell-based, E. coli MG1655; conditions: 32 µM LfcinB
Text: To confirm one of the mechanisms of LfcinB action in pyruvate metabolism, a minimal medium was chosen; because general LB medium contains many carbon sources, including sugars, alcohols and organic acids, this minimal medium allowed glucose to be the sole carbon source in the pyruvate assays. Minimal medium consisted of 6 g/l NaH2PO4, 3 g/l K2HPO4, 0.5 g/l NaCl, 0.12 g/l MgSO4, 1 g/l NH4Cl, 0.01 g/l CaCl2 and 5 g/l glucose. A 0.22 µm filter (Millex®GS, Millipore) was used to filter the minimal medium. E. coli MG1655 was first inoculated into the minimal medium and incubated at 37°C for 16 h with shaking as a preculture. The preculture was diluted 100-fold with the minimal medium in 96-well plate, and 32 µM of LfcinB were added. The mixture was incubated with shaking in a microplate reader at 37°C, and the absorbance was measured after 9 h. Finally, the mixture was harvested by centrifugation at 3452 g for 5 min at 4°C, and each supernatant was removed. The pellets were then stored at −80°C.
To extract the pyruvate in E. coli, hot water extraction was used, a procedure adapted from Canelas et al.. Boiling water was poured into the pellet and it was immediately vortexed. The mixture was then placed in a water bath at 95–100°C for 15 min and cooled on ice. […] Finally, the OD570 of the mixtures was measured by a microplate reader to detect the color intensity.

E. coli = conditions: cited from earlier work
Procedure: Natural antimicrobial peptides are pervasive in plants, insects and animals. […] It is possible that LfcinB served as nutrient for bacteria in the beginning of the assay. […] In the middle part (2–4 h) of the growth curves, the ...

bacteria = conditions: cited from earlier work
Text: Natural antimicrobial peptides are pervasive in plants, insects and animals.

Substance: Lactoferricin B (Biotin-FKCRRWQWRMKKLGAPSITCVRRAF; ends and bridges not checked) [LfcinB]
- degree of polarization vs BSA (NrdF; 100 nM DyLight 549-labeled LfcinB, protein 0.025-0.4 µM, PBS, 0.005% BSA, 0.01% Triton X-100, room temperature, 1 h, Figure 5B): higher polarization than the negative control
- concentration dependence of polarization (NrdF; NrdF, two-fold dilution 0.4 µM to 0.025 µM, 100 nM labeled LfcinB): increased with increasing concentrations of these 4 proteins
- degree of polarization vs BSA (MetL; 100 nM DyLight 549-labeled LfcinB, protein 0.025-0.4 µM, PBS, 0.005% BSA, 0.01% Triton X-100, room temperature, 1 h, Figure 5C): higher polarization than the negative control
- concentration dependence of polarization (MetL; MetL, two-fold dilution 0.4 µM to 0.025 µM, 100 nM labeled LfcinB): increased with increasing concentrations of these 4 proteins
- degree of polarization vs BSA (CyaA; 100 nM DyLight 549-labeled LfcinB, protein 0.025-0.4 µM, PBS, 0.005% BSA, 0.01% Triton X-100, room temperature, 1 h, Figure 5D): higher polarization than the negative control
- concentration dependence of polarization (CyaA; CyaA, two-fold dilution 0.4 µM to 0.025 µM, 100 nM labeled LfcinB): increased with increasing concentrations of these 4 proteins
- binding to YnhE (YnhE): confirmed to bind to LfcinB
- binding to YdaU (YdaU): confirmed to bind to LfcinB
- binding to YjbM (YjbM): confirmed to bind to LfcinB
- binding to MalP (MalP): confirmed to bind to LfcinB
- binding to NrdD (NrdD): confirmed to bind to LfcinB
- growth curves, initial part (0–1.5 h), with vs without LfcinB ([1]; 0–1.5 h): higher growth curves than the strains grown without LfcinB
- slopes of growth curves, middle part (2–4 h), with vs without LfcinB ([1]; 2–4 h): lower than the slopes of the strains without LfcinB
- pyruvate (OD570) level after 9 h with vs without LfcinB (pyruvate in E. coli; minimal medium): accumulation of pyruvate; also recorded: higher than the level in E. coli without LfcinB
- Value of pyruvate (OD570) after 9 h incubation (pyruvate in E. coli; minimal medium with glucose, 37°C, hot water extraction, pyruvate assay kit, E. coli without LfcinB 1.976±0.084): 2.526±0.338
- DNA synthesis at initiation of LfcinB into the medium (E. coli): DNA synthesis was increased
- DNA, RNA and protein synthesis of E. coli (E. coli; sublethal concentration): inhibited DNA, RNA and protein synthesis of E. coli
- filamentation during an SOS-response (E. coli; sublethal concentration): induced filamentation during an SOS-response
- bacterial growth inhibition and membrane effect (bacteria): inhibits bacterial growth by impeding intracellular activities without destroying membrane integrity or penetrating the cytoplasmic membrane
- mechanism of antimicrobial activity (bacteria): pore-forming mechanism
